Results: BindingDB's records for doi:10.1021/jm070370z (Ligand Pharmaceuticals, 2007)

Biological target: T1, Glucocorticoid receptor (Homo sapiens, UniProt P04150)
T1 sequence (P04150 whole entry): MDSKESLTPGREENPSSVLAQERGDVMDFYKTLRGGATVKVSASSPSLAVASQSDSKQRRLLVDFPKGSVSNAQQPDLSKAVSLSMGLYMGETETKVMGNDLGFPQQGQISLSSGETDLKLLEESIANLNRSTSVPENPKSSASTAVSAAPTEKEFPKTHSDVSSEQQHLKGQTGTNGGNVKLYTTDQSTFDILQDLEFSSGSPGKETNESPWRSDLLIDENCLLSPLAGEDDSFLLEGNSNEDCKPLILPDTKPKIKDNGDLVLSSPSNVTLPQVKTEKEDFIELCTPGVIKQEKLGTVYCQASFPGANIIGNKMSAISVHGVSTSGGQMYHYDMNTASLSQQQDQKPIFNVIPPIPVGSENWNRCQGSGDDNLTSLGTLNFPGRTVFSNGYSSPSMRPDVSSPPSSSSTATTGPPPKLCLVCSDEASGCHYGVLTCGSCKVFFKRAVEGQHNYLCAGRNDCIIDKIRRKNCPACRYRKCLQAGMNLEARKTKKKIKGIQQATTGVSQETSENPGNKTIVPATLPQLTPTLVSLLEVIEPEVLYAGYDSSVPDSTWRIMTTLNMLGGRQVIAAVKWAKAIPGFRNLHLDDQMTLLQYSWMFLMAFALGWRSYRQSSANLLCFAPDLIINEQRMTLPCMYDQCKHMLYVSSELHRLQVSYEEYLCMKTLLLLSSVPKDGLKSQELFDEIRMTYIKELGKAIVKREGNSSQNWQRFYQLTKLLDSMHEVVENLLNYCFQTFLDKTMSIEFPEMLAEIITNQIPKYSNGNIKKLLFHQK
Assay: GR-Mediated Antagonist Activity Assay and IL-6 Repression Assay
Conditions: pH 7.5
Experimental: Potencies of compounds are reported as the concentration at which they reach half their antagonist (IC50) activity. IL-6 Repression Assay- The GR-mediated repression of IL-6 production in a human fibroblast (NHDFneo) cell line is measured with a modified ELISA assay.

SMILES | EC50 | IC50
COc1c(O)ccc2c1-c1ccc3c(c1/C(=C/c1sccc1[C@@H](O)C(F)(F)F)O2)C(C)=CC(C)(C)N3 [(18Z)-12-methoxy-3,5,5-trimethyl-18-({3-[(1R)-2,2,2-trifluoro-1-hydroxyethyl]thiophen-2-yl}methylidene)-17-oxa-6-azatetracyclo[8.8.0.0^{2,7}.0^{11,16}]octadeca-1(10),2(7),3,8,11,13,15-heptaen-13-ol] | 1.4 nM | 0.6 nM
COc1c(O)ccc2c1-c1ccc3c(c1/C(=C/c1sccc1[C@H](O)C(F)(F)F)O2)C(C)=CC(C)(C)N3 [(18Z)-12-methoxy-3,5,5-trimethyl-18-({3-[(1S)-2,2,2-trifluoro-1-hydroxyethyl]thiophen-2-yl}methylidene)-17-oxa-6-azatetracyclo[8.8.0.0^{2,7}.0^{11,16}]octadeca-1(10),2(7),3,8,11,13,15-heptaen-13-ol] | 0.2 nM | 0.2 nM
COc1c(O)ccc2c1-c1ccc3c(c1C(=Cc1sccc1C(=O)C1CCCCC1)O2)C(C)=CC(C)(C)N3 [(18Z)-18-[(3-cyclohexanecarbonylthiophen-2-yl)methylidene]-12-methoxy-3,5,5-trimethyl-17-oxa-6-azatetracyclo[8.8.0.0^{2,7}.0^{11,16}]octadeca-1(10),2(7),3,8,11,13,15-heptaen-13-ol] | – | 1 nM
CCCCC(O)c1ccsc1/C=C1\Oc2ccc(O)c(OC)c2-c2ccc3c(c21)C(C)=CC(C)(C)N3 (stereo unspecified) [(18Z)-18-{[3-(1-hydroxypentyl)thiophen-2-yl]methylidene}-12-methoxy-3,5,5-trimethyl-17-oxa-6-azatetracyclo[8.8.0.0^{2,7}.0^{11,16}]octadeca-1(10),2(7),3,8,11,13,15-heptaen-13-ol] | – | 0.9 nM
